Results from ChEMBL document CHEMBL5096212, “Development of a water-soluble ryanodine receptor 1 inhibitor” (Bioorg Med Chem, 2022).
≈ marks a conversion by molar mass, not a printed value.

Key:
[1] = Solubility of the compound in 30% EtOH/PBS measured after 48 hrs by HPLC analysis; assay type: physicochemical
[2] = Inhibition of RyR1 R2163C mutant (unknown origin) expressed in HEK293 cells measured every 10s for 300s by R-CEPIA1er based fluorescence analysis; assay type: cell-based, Homo sapiens
[3] = Solubility of the compound in saline measured after 48 hrs by HPLC analysis; assay type: physicochemical; conditions: buffer

| solubility at 48 h [1] [µg/mL] | EC50 [2] [nM] | solubility [3] [µg/mL] | Structure (SMILES) |
| --- | --- | --- | --- |
| 4.7 (≈ 13.6 µM) | 12 |  | CCCCCCCCn1cc(C(=O)O)c(=O)c2cc3c(cc21)OCO3 |
|  |  | 27 | CCCCCCCCn1cc(C(=O)[O-])c(=O)c2cnc(OC)cc21.[Na+] |
|  |  | 3.9 | CCCCCCCn1cc(C(=O)[O-])c(=O)c2cc3c(cc21)OCO3.[Na+] |
| 414 (≈ 1250 µM) | 68 |  | CCCCCCCCn1cc(C(=O)O)c(=O)c2cnc(OC)cc21 |
| 54 (≈ 163 µM) | 11 |  | CCCCCCCn1cc(C(=O)O)c(=O)c2cc3c(cc21)OCO3 |
|  | 1700 |  | CCCCCCCCn1cc(C(=O)O)c(=O)c2c(OC)nccc21 |
|  | 525 |  | CCCCCCCn1cc(C(=O)O)c(=O)c2cnc(OC)cc21 |
|  |  | 0.84 | CCCCCCCCn1cc(C(=O)[O-])c(=O)c2cc3c(cc21)OCO3.[Na+] |
|  | 70 |  | CCCCCCn1cc(C(=O)O)c(=O)c2cc3c(cc21)OCO3 |
